Legend:
SMYD3 (apo, native) = target: T1, SMYD3 (apo, native) (Homo sapiens, UniProt Q9H7B4); assay: GCI biosensor kinetic screening, apo SMYD3 surface; assay type: binding; conditions: for LE (ligand efficiency): LE = −RT ln(KD)/n; for Kd / kd / kon at 250 µM: initial kinetic screening, fragment 250 μM, 15 °C; for kd / kon at 250 µM: 1:1 model; for kon at 250 µM: read-out: ka
T1 construct: Full length recombinant SMYD3 was produced as previously reported; made in house; host or cells: E. coli BL21(DE3), in some cases Rosetta 2
T1 sequence (Q9H7B4 1-428): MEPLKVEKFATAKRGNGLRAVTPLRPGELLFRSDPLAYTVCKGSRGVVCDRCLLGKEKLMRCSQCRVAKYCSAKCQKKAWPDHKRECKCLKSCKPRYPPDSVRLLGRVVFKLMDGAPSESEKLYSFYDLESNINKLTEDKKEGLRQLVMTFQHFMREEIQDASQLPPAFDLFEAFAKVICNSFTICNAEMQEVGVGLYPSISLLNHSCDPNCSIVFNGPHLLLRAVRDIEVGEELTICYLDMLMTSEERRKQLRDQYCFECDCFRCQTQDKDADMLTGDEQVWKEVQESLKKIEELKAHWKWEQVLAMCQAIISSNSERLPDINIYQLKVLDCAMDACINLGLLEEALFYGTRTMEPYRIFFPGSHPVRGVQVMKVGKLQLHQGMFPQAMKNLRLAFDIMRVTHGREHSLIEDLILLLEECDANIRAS
Source text: (§1) A multiplexed screening assay was set up with three different SMYD3 surfaces and a blank reference surface in flow channels 1–4 (FC1–FC4) (Fig. 2a), as described previously.[5] The apo SMYD3 surface detected fragments interacting anywhere on SMYD3, while a SMYD3 surface blocked by active site-specific tight-binding inhibitor EPZ031686 detected compounds binding elsewhere. The denatured surface served as a reference, detecting fragments binding to unfolded proteins, also potentially present to a significant degree in the other two surfaces.
After preparing the sensor surface and immobilising SMYD3, the functionality of the surface was assessed via analysis of interactions with the co-factor product S-adenosyl-homocysteine (SAH). It was used as a control in all experiments, confirming that sensor surfaces were intact. This was done using the novel multiple injection-based experimental design (Fig. 1) at 25 μM, i.e. in a weak binder mode (Fig. 2b).
(§2) The library was screened using the approach described in Fig. 1, i.e. injection of fragments at 250 μM for increasing durations of time in a single cycle, using a flow rate of 100 μL min^−1, data acquisition set to 40 Hz and with an association time of 5 s and dissociation of 20 s. Each fragment was addressed to all four channels and interactions with the native and blocked surfaces compared. The experimental conditions were chosen to ensure that the assay could reliably characterize the fast and transient interactions expected from typical fragments.
(§3) The kinetic screening of 1056 compounds was successfully completed in 72 hours. […] Hits were identified with full kinetic information using dissociation phases.
(§4) All interaction kinetic experiments were conducted with a GCI–flow-based biosensor (WAVEdelta, Creoptix AG/Malvern Panalytical) and PCH WAVEchip (Creoptix AG/Malvern Panalytical) sensor chips. The sensor chips were conditioned using injections of borate buffer (10 mM sodium tetraborate pH 8.5, 1 M NaCl). The running buffer composition, if not otherwise stated, was TBS buffer (50 mM Tris, 150 mM NaCl, 0.5 mM TCEP, 0.05% Tween 20, 1% DMSO, pH 8). SMYD3 was diluted to the desired concentration in 10 mM bis-Tris (pH 7.0) and amine coupled to the sensor surface of the PCH sensor chip. The sensor chip was functionalized at 25 °C by immobilising SMYD3 with EDC and NHS (Xantec) using an injection time of 420 s and a flow rate of 10 μL min^−1. The immobilisation levels ranged from 5000 pg mm^−2 to 18 500 pg mm^−2 surface mass to enable analysis of fragments spanning a broad range of affinities. After immobilization, the surface was deactivated with a running buffer containing 50 mM Tris for 420 s. The GCI data referencing and analysis were performed using WAVEcontrol V4.5 (Creoptix AG).
(§5) Kinetic measurements with controls and fragments were performed at 15 °C. Analysis of controls and follow up of hits was done using the multi cycle kinetic (MCK) injection of a concentration series for the same time, with a two-fold serial dilution starting at 250 μM for each compound. Solvent correction was performed ranging from 0.5–1.8% DMSO. Blank samples of the running buffer, 1× TBS (50 mM Tris, 150 mM NaCl, 0.5 mM TCEP, 0.05% Tween 20, 1% DMSO, pH 8), were injected during the measurements every fifth cycle. The experimental design illustrated in Fig. 1 was used for the screening against all four surfaces. The sensorgrams were adjusted to account for solvent correction and blank subtraction. Kinetic fitting was performed with the Direct Kinetics engine of WAVEcontrol software V4.5 (Creoptix AG) with a suitable fitting model.

SMYD3 [1] = target: T2, SMYD3 (Homo sapiens, UniProt Q9H7B4); assay: X-ray crystallography of SMYD3-fragment complexes (co-crystallization and soaking); set-up: key to XRC: success or failure of crystallization in complex with SMYD3: The success (+) or failure (−) of crystallization in complex with SMYD3; The success (+) or failure (−) of crystallization in complex with SMYD3; conditions: 5 mM fragment co-crystallization or soaking
T2 construct: Full length recombinant SMYD3 was produced as previously reported; made in house; host or cells: E. coli BL21(DE3), in some cases Rosetta 2
T2 sequence (Q9H7B4 1-428): T1 sequence (Q9H7B4 1-428)
Source text: To identify binding sites and binding modes, the fragment hits (Table 1) were used in both co-crystallization and soaking experiments to obtain SMYD3-fragment co-crystals for X-ray crystallographic analyses. Diffraction data of 1.6–1.9 Å maximum resolution were obtained for four fragments (Fig. 5). For data collection and refinement statistics, see ESI, ^† Table S1.
Four new sites were thus identified.
Polder (F0–Fc) maps (Fig. 5, right) were generated to establish whether the observed electron density features were more likely to represent background noise or to belong to bound fragments. These omit maps are generated upon exclusion of the ligand and surrounding solvent from the model, which aids in visualizing weak densities. […] For fragments FL01507, FL08580 and FL08619, a comparison of the maps obtained after refinement with a bound fragment with maps obtained upon their replacement with either glycerol or acetate, which were present in the crystallization or cryo-protectant solutions, respectively, was required.
8 mg mL^−1 of SMYD3 in storage buffer (TBS buffer containing 2 mM DTT) was pre-incubated for 4–8 hours with 5 mM of a respective fragment hit compound and 10% (v/v) DMSO. Subsequently, 1 μL of this solution was mixed with an equal volume of reservoir solution (100 mM Tris, 100 mM magnesium acetate, 15–17% PEG3350, pH 8.25–8.75) to create the drops for co-crystallization by hanging drop vapour diffusion performed at 20 °C. Needle-like co-crystals nucleated within 12 h of equilibration against the reservoir. In addition, crystals of SMYD3 obtained in ligand-free crystallization setups were soaked with fragment solution prior to freezing. All crystals were cryo-protected via brief immersion in reservoir solution supplemented with 10% (v/v) glycerol.
Diffraction data were collected at beamline ID23-1 of the European Synchrotron Radiation Facility (ESRF, Grenoble, France). Data were indexed, auto-processed, scaled and merged on-site using the implemented data processing routines and software. Fragment-associated electron density features were identified upon data analysis with the Pipedream system (version 1.4.0, Global Phasing Ltd, Cambridge, United Kingdom), which includes data processing with autoPROC,[14] molecular replacement with Phaser,[15] structure refinement with BUSTER version 2.10.4 (Global Phasing Ltd, Cambridge, United Kingdom), automated ligand fitting with Rhofit (Global Phasing Ltd, Cambridge, United Kingdom) and BUSTER post-refinement.[16] Refinement was done with Phenix,[17] and model building with Coot.[18] (F0–Fc) difference density maps for models, from which ligand atoms and surrounding water molecules were removed, were generated using Phenix.

SMYD3 [2] = target: T2, SMYD3; assay: GCI biosensor multi cycle kinetic confirmation of hits; assay type: binding; conditions: two-fold serial dilution starting at 250 μM, 15 °C, global fit 1:1 model
Description: Selected screening hits were also re-tested by conventional multi cycle kinetic analysis in order to confirm the interactions (some compounds were no longer available). Two variants of the GCI biosensor assay were set up, using different immobilisation levels, to allow the confirmation of hits over a broad range of affinities. […] The kinetics varied for the selected hits (ESI, ^† Fig. S2). All hits were not confirmed (ESI, ^† Fig. S1b).
as §4, §5
FL06268 Superstoichiometric and
Figure 1. Examples of sensorgrams from multicycle kinetic experiments with initial fragment hits and SMYD3. A)
Fragments for which crystal structures of the complex with SMYD3 were obtained. A global fit of the sensorgrams
crystal structures were not obtained. […]

[3] = target: T3, SMYD3 in complex with active site-specific tight-binding inhibitor EPZ031686 (Homo sapiens, UniProt Q9H7B4); assay: GCI biosensor kinetic screening, active site blocked SMYD3 surface; conditions: for LE (ligand efficiency): LE = −RT ln(KD)/n, blocked SMYD3 surface; for Kd / kd / kon at 250 µM: initial kinetic screening, fragment 250 μM, 15 °C; for Kd: SMYD3 blocked by EPZ031686; for kd / kon at 250 µM: SMYD3 blocked by EPZ031686, 1:1 model; for kon at 250 µM: read-out: ka
T3 construct: Full length recombinant SMYD3 was produced as previously reported; made in house; host or cells: E. coli BL21(DE3), in some cases Rosetta 2
T3 sequence (Q9H7B4 1-428): T1 sequence (Q9H7B4 1-428)
Source text: as §1, §2, §3, §4, §5

Row | LE (ligand efficiency) (SMYD3 (apo, native)) | Kd (SMYD3 (apo, native)) | kd (SMYD3 (apo, native)) | kon at 250 µM (SMYD3 (apo, native)) | XRC: success or failure of crystallization in complex with SMYD3 (SMYD3 [1]) | Outcome of multicycle kinetic experiment (sensorgram assessment) (SMYD3 [2]) | LE (ligand efficiency) [3] | Kd [3] | kd [3] | kon at 250 µM [3] | SMILES
1 | 0.72 (kcal^-1 mol^-1)/HA | 17.9 µM | 1.3 s⁻¹ | 72000 M⁻¹ s⁻¹ | (+) | Complex interaction |  |  |  |  | N#Cc1cccc(O)c1 [FL01507]
2 |  |  |  |  | (−) |  | 0.53 (kcal^-1 mol^-1)/HA | 56 µM | 1.09 s⁻¹ | 19400 M⁻¹ s⁻¹ | Oc1ccc2ccncc2c1 [FL01657]
3 |  |  |  |  | (+) |  | 0.67 (kcal^-1 mol^-1)/HA | 37 µM | 1.46 s⁻¹ | 39100 M⁻¹ s⁻¹ | CC(C)c1nsc(N)n1 [FL01791]
4 |  |  |  |  | (−) |  | 0.31 (kcal^-1 mol^-1)/HA | 149 µM | 1.46 s⁻¹ | 9780 M⁻¹ s⁻¹ | COc1ccc(-n2ncc(C(=O)O)c2C)cc1 [FL01833]
5 | 0.52 (kcal^-1 mol^-1)/HA | 27.4 µM | 0.70 s⁻¹ | 25900 M⁻¹ s⁻¹ | (−) |  |  |  |  |  | Nc1nc2cccnc2cc1Br [FL01891]
6 |  |  |  |  | (−) |  | 0.53 (kcal^-1 mol^-1)/HA | 124 µM | 1.61 s⁻¹ | 13000 M⁻¹ s⁻¹ | COc1ccc(Br)cc1N [FL01938]
7 | 0.50 (kcal^-1 mol^-1)/HA | 17.4 µM | 1.09 s⁻¹ | 62700 M⁻¹ s⁻¹ | (−) |  |  |  |  |  | O=C(O)c1ccnc2ccccc12 [FL02261]
8 | 0.70 (kcal^-1 mol^-1)/HA | 7.84 µM | 0.93 s⁻¹ | 118000 M⁻¹ s⁻¹ | (−) |  |  |  |  |  | NC(=O)c1cccc(O)c1 [FL08580]
9 |  |  |  |  | (−) |  | 0.48 (kcal^-1 mol^-1)/HA | 25 µM | 1.07 s⁻¹ | 41900 M⁻¹ s⁻¹ | Nc1ccnc(-c2cccnc2)n1 [FL08779]
10 | 0.49 (kcal^-1 mol^-1)/HA | 51.3 µM | 2.04 s⁻¹ | 39700 M⁻¹ s⁻¹ | (−) |  |  |  |  |  | Nc1nnc(-c2cccnc2)s1 [FL08795]

The next lines start with the compound.

Row | SMILES | LE (ligand efficiency) (SMYD3 (apo, native)) | Kd (SMYD3 (apo, native)) | kd (SMYD3 (apo, native)) | kon at 250 µM (SMYD3 (apo, native)) | XRC: success or failure of crystallization in complex with SMYD3 (SMYD3 [1]) | Outcome of multicycle kinetic experiment (sensorgram assessment) (SMYD3 [2]) | LE (ligand efficiency) [3] | Kd [3] | kd [3] | kon at 250 µM [3]
11 | O=c1cc(C(F)(F)F)c2cc(Cl)c(O)cc2o1 [FL01677] | 0.35 (kcal^-1 mol^-1)/HA | 44.4 µM | 0.96 s⁻¹ | 21600 M⁻¹ s⁻¹ | (−) | No binding |  |  |  | 
12 | N#Cc1cc(Br)ccc1O [FL01750] | 0.61 (kcal^-1 mol^-1)/HA | 31.6 µM | 0.93 s⁻¹ | 29500 M⁻¹ s⁻¹ | (−) | No binding |  |  |  | 
13 | O=C(O)c1cc(Br)c(O)c(Br)c1 [FL01775] |  |  |  |  | (−) |  | 0.48 (kcal^-1 mol^-1)/HA | 56 µM | 1.37 s⁻¹ | 24400 M⁻¹ s⁻¹
14 | COc1ccccc1C1OC(=O)CC1C(=O)O (stereo not shown) [FL03512] | 0.35 (kcal^-1 mol^-1)/HA | 38 µM | 1.61 s⁻¹ | 42200 M⁻¹ s⁻¹ | (−) |  |  |  |  | 
15 | Nc1ccc(S(N)(=O)=O)cc1 [FL04272] | 0.66 (kcal^-1 mol^-1)/HA | 4.4 µM | 0.68 s⁻¹ | 150000 M⁻¹ s⁻¹ | (−) |  |  |  |  | 
16 | O=S(=O)(c1ccccc1)C1CCNC1 (stereo not shown) [FL08644] |  |  |  |  | (−) |  | 0.51 (kcal^-1 mol^-1)/HA | 5.6 µM | 0.42 s⁻¹ | 75200 M⁻¹ s⁻¹
17 | CC(C)(C)OC(=O)NC1CCC(CC(=O)O)CC1 (stereo not shown) [FL08758] |  |  |  |  | (−) |  | 0.32 (kcal^-1 mol^-1)/HA | 60 µM | 2.01 s⁻¹ | 33300 M⁻¹ s⁻¹

From paper PMC11187542, “Identification of fragments targeting SMYD3 using highly sensitive kinetic and multiplexed biosensor-based screening” (RSC Medicinal Chemistry, 2024)
